Where “and” joins values, the source holds several entries; their conditions need not be identical. Equal values may be shown once.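 The concentration for 50% growth inhibition is given as GI50. The concentration for full growth arrest is given as TGI.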
Tests used:
Assay in all cases: DTP human tumour cell line panel, 384-well format
HOP-92 NSCLC = tested on: HOP-92 NSCLC
A549 NSCLC = tested on: A549 NSCLC
MDA-MB-231 breast = tested on: MDA-MB-231 breast
K-562 leukemia = tested on: K-562 leukemia
SK-MEL-28 melanoma = tested on: SK-MEL-28 melanoma
MOLT-4 leukemia = tested on: MOLT-4 leukemia
NCI-H322M lung = tested on: NCI-H322M lung
LOX IMVI melanoma = tested on: LOX IMVI melanoma
SK-OV-3 ovarian = tested on: SK-OV-3 ovarian
UACC-257 melanoma = tested on: UACC-257 melanoma
CAKI-1 renal = tested on: CAKI-1 renal
T-47D breast = tested on: T-47D breast
M14 melanoma = tested on: M14 melanoma
NCI-H460 NSCLC = tested on: NCI-H460 NSCLC
BT-549 breast = tested on: BT-549 breast
A498 renal = tested on: A498 renal
NCI-H522 lung = tested on: NCI-H522 lung
OVCAR-3 ovarian = tested on: OVCAR-3 ovarian
UO-31 renal = tested on: UO-31 renal
NCI-H226 lung = tested on: NCI-H226 lung
MALME-3M melanoma = tested on: MALME-3M melanoma
SNB-19 CNS = tested on: SNB-19 CNS
SW-620 colon = tested on: SW-620 colon
SR leukemia = tested on: SR leukemia
NCI/ADR-RES ovarian = tested on: NCI/ADR-RES ovarian
EKVX NSCLC = tested on: EKVX NSCLC
SK-MEL-5 melanoma = tested on: SK-MEL-5 melanoma
U251 glioblastoma = tested on: U251 glioblastoma
DU-145 prostate = tested on: DU-145 prostate
IGROV1 ovarian = tested on: IGROV1 ovarian
PC-3 prostate = tested on: PC-3 prostate
HCT-15 colon = tested on: HCT-15 colon
HL-60(TB) leukemia = tested on: HL-60(TB) leukemia
TK-10 renal = tested on: TK-10 renal
MCF7 breast = tested on: MCF7 breast
HCT-116 colon = tested on: HCT-116 colon
CCRF-CEM leukemia = tested on: CCRF-CEM leukemia
SNB-75 CNS = tested on: SNB-75 CNS
MDA-MB-468 breast = tested on: MDA-MB-468 breast
NCI-H23 lung = tested on: NCI-H23 lung
SF-295 CNS = tested on: SF-295 CNS
HCC-2998 colon = tested on: HCC-2998 colon
SN12C renal = tested on: SN12C renal
OVCAR-5 ovarian = tested on: OVCAR-5 ovarian
UACC-62 melanoma = tested on: UACC-62 melanoma
COLO 205 colon = tested on: COLO 205 colon
MDA-MB-435 melanoma = tested on: MDA-MB-435 melanoma
HT29 colon = tested on: HT29 colon
RXF 393 renal = tested on: RXF 393 renal
HS 578T breast = tested on: HS 578T breast
SK-MEL-2 melanoma = tested on: SK-MEL-2 melanoma
786-0 renal = tested on: 786-0 renal
KM12 colon = tested on: KM12 colon
ACHN renal = tested on: ACHN renal
OVCAR-4 ovarian = tested on: OVCAR-4 ovarian
SF-539 CNS = tested on: SF-539 CNS
SF-268 CNS = tested on: SF-268 CNS
HOP-62 NSCLC = tested on: HOP-62 NSCLC
RPMI-8226 leukemia = tested on: RPMI-8226 leukemia

In the case of `CC1Cc2ccccc2N1C(=O)Cc1nc(N2CCOCC2)cc(=O)[nH]1` (stereo not drawn), the GI50 (HOP-92 NSCLC) is reported as 8.04 µM and 25.3 µM, the TGI (HOP-92 NSCLC) is reported as greater than 100 µM and the GI50 (A549 NSCLC) is reported as 16.2 µM and 32.4 µM. The TGI (A549 NSCLC) was greater than 100 µM, the GI50 (MDA-MB-231 breast) was 22.5 µM and 51.2 µM and the TGI (MDA-MB-231 breast) was greater than 100 µM. The GI50 (K-562 leukemia) was 37.8 µM and 78.3 µM, the TGI (K-562 leukemia) was greater than 100 µM and the GI50 (SK-MEL-28 melanoma) was 6.88 µM and 26.8 µM. The TGI (SK-MEL-28 melanoma) was greater than 100 µM, the GI50 (MOLT-4 leukemia) was 4.69 µM and 15 µM and the TGI (MOLT-4 leukemia) was 20.4 µM and 41 µM. The GI50 (NCI-H322M lung) was 12.5 µM and 38.2 µM, the TGI (NCI-H322M lung) was 99.7 µM and > 100 µM and the GI50 (LOX IMVI melanoma) was 14.5 µM and 50.9 µM. For the same molecule, the TGI (LOX IMVI melanoma) was 42.4 µM and > 100 µM, the GI50 (SK-OV-3 ovarian) was 8.17 µM and 16.2 µM and the TGI (SK-OV-3 ovarian) was greater than 100 µM. For the same molecule, the GI50 (UACC-257 melanoma) was 47.9 µM and > 100 µM, the TGI (UACC-257 melanoma) was greater than 100 µM and the GI50 (CAKI-1 renal) was 4.84 µM and 12.7 µM. For the same molecule, the TGI (CAKI-1 renal) was greater than 100 µM, the GI50 (T-47D breast) was 3.31 µM and 11.2 µM and the TGI (T-47D breast) was 65 µM and 75.2 µM. For the same molecule, the GI50 (M14 melanoma) was > 100 µM and 71 µM, the TGI (M14 melanoma) was greater than 100 µM and the GI50 (NCI-H460 NSCLC) was 8.38 µM and 29.9 µM. For the same molecule, the TGI (NCI-H460 NSCLC) was greater than 100 µM, the GI50 (BT-549 breast) was 2.46 µM and 11.6 µM and the TGI (BT-549 breast) was 45.6 µM and > 100 µM. The GI50 (A498 renal) was 0.286 µM and 1.34 µM, the TGI (A498 renal) was 2.47 µM and 7.74 µM and the GI50 (NCI-H522 lung) was 25.2 µM and 57.7 µM. The TGI (NCI-H522 lung) was greater than 100 µM, the GI50 (OVCAR-3 ovarian) was 2.41 µM and 8.56 µM and the TGI (OVCAR-3 ovarian) was 24.6 µM and > 100 µM. The GI50 (UO-31 renal) was 4.59 µM and 14 µM, the TGI (UO-31 renal) was > 100 µM and 45.6 µM and the GI50 (NCI-H226 lung) was 63.2 µM and 65.3 µM. For the same molecule, the TGI (NCI-H226 lung) was greater than 100 µM, the GI50 (MALME-3M melanoma) was 14.3 µM and 23.3 µM and the TGI (MALME-3M melanoma) was 97.1 µM and > 100 µM. The GI50 (SNB-19 CNS) was greater than 100 µM, the TGI (SNB-19 CNS) was greater than 100 µM and the GI50 (SW-620 colon) was 64.3 µM and > 100 µM. For the same molecule, the TGI (SW-620 colon) was greater than 100 µM, the GI50 (SR leukemia) was 14.3 µM and 21.4 µM and the TGI (SR leukemia) was 28.4 µM and 62.9 µM. The GI50 (NCI/ADR-RES ovarian) was greater than 100 µM, the TGI (NCI/ADR-RES ovarian) was greater than 100 µM and the GI50 (EKVX NSCLC) was 5.5 µM and 15.9 µM. For the same molecule, the TGI (EKVX NSCLC) was 38.9 µM and 98.9 µM, the GI50 (SK-MEL-5 melanoma) was 20.2 µM and 33.2 µM and the TGI (SK-MEL-5 melanoma) was greater than 100 µM. The GI50 (U251 glioblastoma) was 67.8 µM and > 100 µM, the TGI (U251 glioblastoma) was greater than 100 µM and the GI50 (DU-145 prostate) was 14.2 µM and 34.2 µM. The TGI (DU-145 prostate) was greater than 100 µM, the GI50 (IGROV1 ovarian) was 1.72 µM and 7.93 µM and the TGI (IGROV1 ovarian) was 7.96 µM and 32.8 µM. The GI50 (PC-3 prostate) was 1.86 µM and 4.92 µM, the TGI (PC-3 prostate) was greater than 100 µM and the GI50 (HCT-15 colon) was 24.1 µM and 37.9 µM. For the same molecule, the TGI (HCT-15 colon) was greater than 100 µM, the GI50 (HL-60(TB) leukemia) was 3.35 µM and 10.3 µM and the TGI (HL-60(TB) leukemia) was 24.7 µM and > 100 µM. The GI50 (TK-10 renal) was 7.25 µM and 25.3 µM, the TGI (TK-10 renal) was greater than 100 µM and the GI50 (MCF7 breast) was 3.23 µM and 14.9 µM. The TGI (MCF7 breast) was greater than 100 µM, the GI50 (HCT-116 colon) was 16.3 µM and 52.1 µM and the TGI (HCT-116 colon) was greater than 100 µM. The GI50 (CCRF-CEM leukemia) was 23.1 µM and 61.7 µM, the TGI (CCRF-CEM leukemia) was greater than 100 µM and the GI50 (SNB-75 CNS) was 0.561 µM and 3.1 µM. The TGI (SNB-75 CNS) was 25.4 µM and 40.2 µM, the GI50 (MDA-MB-468 breast) was 3.31 µM and 15.1 µM and the TGI (MDA-MB-468 breast) was 17.7 µM and 65.7 µM. The GI50 (NCI-H23 lung) was 37.6 µM and > 100 µM, the TGI (NCI-H23 lung) was greater than 100 µM and the GI50 (SF-295 CNS) was 5.17 µM and 17.9 µM. For the same molecule, the TGI (SF-295 CNS) was greater than 100 µM, the GI50 (HCC-2998 colon) was 4.86 µM and 33 µM and the TGI (HCC-2998 colon) was 75.2 µM and > 100 µM. The GI50 (SN12C renal) was 4.74 µM and 22.6 µM, the TGI (SN12C renal) was greater than 100 µM and the GI50 (OVCAR-5 ovarian) was 18.9 µM and 58.3 µM. For the same molecule, the TGI (OVCAR-5 ovarian) was greater than 100 µM, the GI50 (UACC-62 melanoma) was 9.61 µM and 32.7 µM and the TGI (UACC-62 melanoma) was greater than 100 µM. For the same molecule, the GI50 (COLO 205 colon) was 53.8 µM and > 100 µM, the TGI (COLO 205 colon) was greater than 100 µM and the GI50 (MDA-MB-435 melanoma) was > 100 µM and 85.3 µM. The TGI (MDA-MB-435 melanoma) was greater than 100 µM, the GI50 (HT29 colon) was 9.87 µM and 49.4 µM and the TGI (HT29 colon) was 29.7 µM and > 100 µM. The GI50 (RXF 393 renal) was 0.266 µM and 1.16 µM, the TGI (RXF 393 renal) was 3.44 µM and 15 µM and the GI50 (HS 578T breast) was 3.8 µM and 13.4 µM. For the same molecule, the TGI (HS 578T breast) was 23.1 µM and 58.3 µM, the GI50 (SK-MEL-2 melanoma) was 63.2 µM and > 100 µM and the TGI (SK-MEL-2 melanoma) was greater than 100 µM. For the same molecule, the GI50 ([…]-0 renal) was 3.31 µM and 17.8 µM, the TGI (786-0 renal) was greater than 100 µM and the GI50 (KM12 colon) was 13.5 µM and 72 µM. For the same molecule, the TGI (KM12 colon) was 34.4 µM and > 100 µM, the GI50 (ACHN renal) was 5.56 µM and 17.4 µM and the TGI (ACHN renal) was greater than 100 µM. For the same molecule, the GI50 (OVCAR-4 ovarian) was > 100 µM and 74.9 µM, the TGI (OVCAR-4 ovarian) was greater than 100 µM and the GI50 (SF-539 CNS) was 22.4 µM and 59.7 µM. For the same molecule, the TGI (SF-539 CNS) was greater than 100 µM, the GI50 (SF-268 CNS) was 18.5 µM and 49.8 µM and the TGI (SF-268 CNS) was greater than 100 µM. For the same molecule, the GI50 (HOP-62 NSCLC) was 20.6 µM and 33.5 µM, the TGI (HOP-62 NSCLC) was greater than 100 µM and the GI50 (RPMI-8226 leukemia) was 11.8 µM and 36.3 µM. For the same molecule, the TGI (RPMI-8226 leukemia) was 24.9 µM and > 100 µM.

Reference: PubChem BioAssay (NCI)
